The values below come from publication PMC12635268, “Novel antimicrobial peptides and peptide-microbiome crosstalk in Appalachian salamander skin” (NPJ Biofilms and Microbiomes, 2025).

Ends that are not written are not given here.

Data set [1] concerns Batrachochytrium dendrobatidis Bd-GPL strain JEL404. As to conditions: synthesized peptide 62.5 μg/mL; slope of growth; positive = inhibition, negative = no inhibition. How it is done: Bd-peptide challenge assays were conducted with the crude peptides extracted from the salamander skin secretions and with the 20 synthesized peptides. We followed methods by Pereria et al.[49] to conduct assays with the crude peptides using Bd-GPL strain JEL404 at 1 × 10^6 zoospores/mL. Briefly, skin peptide samples were pooled together based on species-site-injection (Table 1). Skin peptides samples were serially diluted 2-fold in MilliQ (Ultrapure Type 1) water and assayed at a concentration of 2.35–75 μg/mL based on starting peptide concentration available. For synthesized peptides, we conducted assays from 15.6 to 500 μg/ml. In both assays, we quantified percent inhibition of each well using slope of growth[90] in which positive values indicate inhibition and negative values indicate no inhibition.

A further data set has as its system A. baumannii ATCC 17978. The experiment in a line: microbe, parasite or virus in culture. As to conditions: ATCC 17978, 20 h. The method, boiled down:
(§1)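 Broth microdilution MIC in cation-adjusted Mueller-Hinton broth, final inoculum 1 × 10⁵ CFU/mL. Peptides in 0.02% TFA + 0.04% BSA, 2-fold series 0.25 to 128 μg/mL, duplicate, 37 °C for 20 h without agitation. Growth imaged; MIC read visually per CLSI.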

The subject of another data set is A. baumannii ATCC 19606. Nature of the data set: microbe, parasite or virus in culture. Conditions: ATCC 19606, 20 h. Put shortly:
as §1

Another data set deals with E. cloacae ATCC 13047. Nature of the data set: microbe, parasite or virus in culture. Conditions: ATCC 13047, 20 h. Put shortly:
as §1

The subject of the next data set is E. cloacae ATCC 35549. Nature of the data set: microbe, parasite or virus in culture. As to conditions: ATCC 35549, 20 h. The method, boiled down:
as §1

Another data set concerns E. coli ATCC 35218. The experiment in a line: microbe, parasite or virus in culture. Conditions: E. coli 35218; Week 2 (12/14/2023). The method, boiled down: as §1
A further data set relates to E. coli ATCC 43888. Nature of the data set: microbe, parasite or virus in culture. Conditions: ATCC 43888, 20 h. The method, boiled down:
as §1

The subject of another data set is E. faecium ATCC 19434. Nature of the data set: microbe, parasite or virus in culture. As to conditions: ATCC 19434, 20 h. Put shortly: as §1
For a further data set, the system named is E. faecium ATCC 49224. Nature of the data set: microbe, parasite or virus in culture. Conditions: ATCC 49224, 20 h. The method, boiled down: as §1
The test system of another data set is K. pneumoniae ATCC 13883. The experiment in a line: microbe, parasite or virus in culture. Conditions: ATCC 13883, 20 h. Put shortly:
as §1

Data set [2] relates to K. pneumoniae ATCC 700603. Nature of the data set: microbe, parasite or virus in culture. Conditions: K. pneumoniae 700603; Week 2 (12/14/2023). The method, boiled down: as §1
The subject of another data set is P. aeruginosa ATCC 27853. The experiment in a line: microbe, parasite or virus in culture. As to conditions: ATCC 27853, 20 h. Put shortly:
as §1

Another data set concerns P. aeruginosa MRSN 5519. The experiment in a line: microbe, parasite or virus in culture. Conditions: MRSN 5519, 20 h. Put shortly:
as §1

For another data set, the system named is S. aureus ATCC 25923. Nature of the data set: microbe, parasite or virus in culture. As to conditions: ATCC 25923, 20 h. Put shortly: as §1
The test system of another data set is S. aureus ATCC 43300. The experiment in a line: microbe, parasite or virus in culture. As to conditions: S. aureus 43300; Week 2 (12/14/2023). The method, boiled down:
as §1

A further data set concerns P. aeruginosa PA01. The experiment in a line: microbe, parasite or virus in culture. Conditions: P. aeruginosa 15692 (PAO1); Week 2 (12/14/2023). It is filed as cell-based. Put shortly: as §1
The next data set concerns P. aeruginosa PA01 (Si). The experiment in a line: microbe, parasite or virus in culture. It is filed as cell-based. As to conditions: Si. The text has this:
Supplement 41522_2025_837_MOESM13_ESM.xlsx, sheet "Table_S13_ESKAPEE-MIC" | column: Bacterial MIC (µg/mL)

Another data set relates to K. pneumoniae 4640. As to conditions: 4640, 20 h.
Another data set deals with A. baumannii 5075. Conditions: Week 2 (12/14/2023).
On the set-up of data set [3]: method as in Biomatik (vendor). Conditions: 1.0 mg peptide in 1.0 ml solvent; peptides synthesized by Biomatik; ref Biomatik (vendor); cited from earlier work.

Regarding SGLRGSL [PrMb-Eb19], the “Bd inhibition score (percent inhibition), mean” value in data set [1] is -38.0157%. Besides, the “Bacterial MIC” value in the data set with A. baumannii ATCC 17978, with A. baumannii ATCC 19606, in the data set on E. cloacae ATCC 13047, with E. cloacae ATCC 35549, in the data set with E. coli ATCC 35218 and in the data set on E. coli ATCC 43888 was greater than 128.000 µg/mL throughout. The “Bacterial MIC” value (in the data set on E. faecium ATCC 19434; with E. faecium ATCC 49224; with K. pneumoniae ATCC 13883; in data set [2]; in the data set on P. aeruginosa ATCC 27853; in the data set on P. aeruginosa MRSN 5519) was greater than 128.000 µg/mL each time. Besides, the “Bacterial MIC” value in the data set on S. aureus ATCC 25923, with S. aureus ATCC 43300, in the data set on P. aeruginosa PA01, in the data set with P. aeruginosa PA01 (Si), in the data set on K. pneumoniae 4640 and in the data set on A. baumannii 5075 was greater than 128.000 µg/mL in each case. In addition, the “Suggest solvent (solubility)” value in data set [3] is given as 1.0mg peptide soluble in 1.0ml H2O.
